Results as given in patent US20240025849A1 (MAX DELBRÜCK-CENTRUM FÜR MOLEKULARE MEDIZIN IN DER …, priority 2020, published 2024).
“Also recorded” adds a separate entry of the source.

Assays:
[1] = test system: primary cultured microglial cells; assay: Flow cytometry-based phagocytosis assay; assay type: cell-based, mouse; conditions: 2.5 μM C1
Experimental: Flow cytometry-based phagocytosis assay. 10^6 primary cultured microglial cells were seeded into 3.5 cm dishes in plain medium overnight at standard conditions. The cells were treated for 1 hour with 2.5 μM C1 in DMSO, 125×10^−5 v/v DMSO respectively, or plain medium only. To stimulate microglia, LPS (1 μg/ml) was added for additional 24 hours. Fluoresbrite Carboxylate Microspheres (BrightBlue, 4.5 μm, Polyscience, Niles, USA) were coated with fetal calf serum for 30 min at room temperature, and subsequently centrifuged at 3000 g for 2 min at room temperature. The beads were resuspended in HBSS at a final concentration of 2×10^6 beads per ml. The microglia culture was washed once with HBSS (37° C.) before 1 ml bead solution was applied. The cells were incubated with the beads for 30 min at 37° C. Afterwards, microglia were washed twice with ice cold HBSS, scratched off and pulled down at 500 g for 5 min. The cells were resuspended in a propidium iodide solution (1:200 in HBSS) to stain dead cells. The stained cells were transferred to a BD LSRFortessa Flow cytometer (BD Bioscience, Sparks, USA). The median intensity of the bright blue beads was calculated using Flowlo v10 software (Ashland, USA). The data of each experiment was normalised to the unstimulated media control.

iNOS mRNA = assay: Quantitative PCR of iNOS mRNA in microglia; assay type: cell-based, mouse; conditions: 2.5 μM C1
Experimental: Quantitative PCR. The same stimulation protocol as for the Flow cytometry-based phagocytosis assay was applied. Cells were seeded overnight, treated with 2.5 μM C1 in DMSO, 125×10^−5 v/v DMSO respectively, or plain medium only for 1 hour, followed by an additional stimulation with 1 μg/ml LPS for 24 hours. Total RNA was isolated using the RNeasy Plus Mini Kit (Qiagen, Hilden, Germany). On-column DNase 1 (Qiagen) digestion was performed and total RNA was eluted in RNase-free water. RNA yield was measured using a Nanodrop 1000 (Thermo Fisher Scientific) spectrophotometer and quality was assessed using an Agilent 2100 Bioanalyzer (Agilent, Santa Clara, USA). Samples were stored at −80° C. until further use. First-strand cDNA synthesis was done with the SuperScript II reverse transcriptase (Thermo Fisher Scientific) using oligo-dT primers12-18 (Invitrogen) according to the manufacturer's instructions. Quantitative real-time PCR (qRT PCR) reactions were performed in a 7500 Fast Real-Time thermocycler (Thermo Fisher Scientific) using the SYBR Select Master Mix (Thermo Fisher Scientific) according to the manufacturer's instructions. cDNA input ranged between 1 and 5 ng/μl of total RNA transcribed into cDNA. The expression results were normalized to the expression of PActin of the same sample.

[2] = test system: primary cultured neonatal astrocytes; assay: Propidium iodide based proliferation and cell death assay in astrocytes; conditions: 2.5 μM C1, 48 hours, unstimulated
Experimental: Primary cultured neonatal astrocytes. The preparation of primary cultured neonatal astrocytes followed the preparation of the primary cultured neonatal microglia, described above. After the third shake off, the remaining astrocytes were trypsinated, washed with PBS and seeded into a 96 well plate (10 000 cells/well, 200 μL medium per well).
Propidium iodide based proliferation and cell death assay. To determine the relative proliferation and cell death, the cells were seeded into a […], let adhere for 24 hours and afterwards treated for additional 48 hours. The supernatant was removed, and the cells were washed carefully with 37° C. HBSS once. 1/200 propidium iodide PBS solution was added and the cells were incubated for 10 minutes. The intensity of the propidium iodide signal of the dead cells was measured using a microplate reader. Afterwards, all cells were killed with a 10 min incubation of 10% DMSO and the propidium iodide signal of all cells was measured. All signals were corrected for the background noise, subtracting the blank signal. The percentage of dead cells was calculated by dividing the dead-cell-signal by the all-cell-signal. Proliferation was calculated as a relative value to the plain medium control.

iNOS = assay: NOS enzyme activity assay (Eurofins), iNOS; assay type: biochemical; conditions: C1: 1 μM up to 5 μM as printed; 30 min reaction
Experimental: In mammalians NO is produced by the three isoforms of NOS: iNOS, eNOS, and nNOS. To evaluate the direct influence of cl on the different isoforms of NOS, an enzyme activity assay was conducted by Eurofins. C1 was mixed with the enzyme buffer, which included co-factors and substrates and by adding the enzyme the reaction was initiated. After 30 min the reaction was stopped, and NO concentration was measured. The results are normalised to positive control performed without any additional compounds and are presented as percentage in inhibition. […] To test the compounds effect on iNOS a concentration range from […] 5 μM were applied ([…], 1, 10, 100 nM, 1, and 5 μM), and for testing eNOS and nNOS 1 nM and 1 μM were applied.

In the case of COc1ccc(NC(=O)C(NC(=O)C2CCCN2C(=O)OCc2ccccc2)c2ccc(OC)cc2)cc1 (centres unmarked) [C1], the “phagocytic activity, basal conditions” value [1] is reported as “neither C1 nor DMSO changes microglial phagocytosis significantly; also recorded: did not alter”, the “increase of phagocytosis upon LPS compared to own unstimulated control” value ([1]; 1 μg/mL LPS 24 hours) is reported as “+45%” and the “phagocytic activity, LPS stimulated conditions” value ([1]; 1 μg/mL LPS 24 hours) is reported as “no significant differences; also recorded: did not alter”. The “iNOS mRNA level, basal conditions” value (iNOS mRNA) was “no significant effect; also recorded: did not change”, the “iNOS mRNA level after LPS stimulation” value (iNOS mRNA; 1 μg/ml LPS 24 hours) was “did not change mRNA significantly” and the “astrocytes cell death rate” value [2] was “no significant effect”. For the same compound, the proliferation of astrocytes [2] was “did not show an effect” and the “enzymatic activity of iNOS” value (iNOS) was “does not interfere”.
